Results as given in patent US20070292403A1, “Methods of treating a neurological disorder with creatine monohydrate” (priority 2006, published 2007).
Like-named read-outs stand apart in the source and are kept apart here.

Tested on: symptomatic subjects with Huntington's disease
Format: in vivo, human
Protocol: A two-phase open-label study was conducted to better determine an optimal dose of creatine symptomatic subjects with Huntington's disease. A dose-escalation study (10-40 grams per day) was conducted to determine the maximally tolerated dose (MTD) followed by a de-escalation phase to assess whether brain and serum levels of creatine might be maximal at doses lower than the MTD. Ten subjects were enrolled and followed prospectively for two weeks at each done level increasing in 5-gram increments during dose escalation that lasted 13 weeks. Assessments at each visit included UHDRS, EKG, vital signs, clinical safety and research labs. MRI spectroscopy was conducted prior to baseline at peak done (40 grams) and one month after de-escalation to either 30 or 15 grams daily. To determine an optimal dose, pharmacokinetic as well as clinical data were considered. Once the maximal dose was reached, subjects were assigned one of two lower doses previously taking (15 grams a day (n=5) or 30 grams a day (n=5)). Serum creatine was assessed at baseline, at the end of each 2-week dose escalation step and at the end of the de-escalation phase to assess the correspondence between serum and brain levels of creatine at steady state.
Subjects at the end of this study were given the option to continue a long-term study to evaluate the long-term safety and tolerability of high dosage of creatine. Subjects have been followed for nine months on creatine. […] Adverse events have been infrequent and mild to moderate in grade and 30 grams daily creatine has been well-tolerated for 9 months. Laboratory abnormalities have been mild. […] Thus long term administration of 30 grams daily of creatine appears to be safe and well-tolerated.

[1] = De-escalation Baseline, 15 g/day, N 5
[2] = De-escalation Baseline, 30 g/day, N 5
[3] = Week 24 (Visit 4), 30 g/day, N 10

CN(CC(=O)O)C(=N)N [Creatine, creatine monohydrate]
Independence Score [1]: 75.0 (8.7) | Stroop Color Naming [1]: 52.8 (22.9) | Stroop Interference [1]: 23.8 (13.1) | Stroop Word Reading [1]: 56.0 (24.3) | Symbol Digit Modalities Test [1]: 29.0 (10.6) | Total Chorea Score [1]: 5.5 (1.7) | Total Functional Assessment [1]: 10.6 (9.8) | Total Functional Capacity [1]: 8.8 (1.8) | Verbal Fluency Test [1]: 15.8 (16.0) | Independence Score [2]: 82.5 (14.4) | Stroop Color Naming [2]: 57.8 (24.2) | Stroop Interference [2]: 40.0 (19.6) | Stroop Word Reading [2]: 90.0 (24.2) | Symbol Digit Modalities Test [2]: 34.0 (20.5) | Total Chorea Score [2]: 7.8 (4.3) | Total Functional Assessment [2]: 15.8 (10.2) | Total Functional Capacity [2]: 9.8 (3.4) | Verbal Fluency Test [2]: 28.3 (15.8) | Independence Score [3]: 82.5 (8.9) | Stroop Color Naming [3]: 51.7 (21.37) | Stroop Interference [3]: 31.3 (15.23) | Stroop Word Reading [3]: 62.7 (24.11) | Symbol Digit Modalities Test [3]: 30.56 (12.63) | Total Chorea Score [3]: 7.0 (4.1) | Total Functional Assessment [3]: 19.6 (4.1) | Total Functional Capacity [3]: 8.7 (2.2) | Verbal Fluency Test [3]: 26.6 (17.67) | Serious adverse effects (human, in vivo): no serious adverse effects | Tolerability (human, in vivo): well-tolerated | Clinical changes (UHDRS subscores) (long-term follow-up, up to 9 months): no significant clinical changes
